For one assay, the system named is HCT-116. Put plainly: PrestoBlue cell viability, HCT-116. To be noted: Homo sapiens; colon, HCF116 (HCT-116), 48 h. It counts as cell-based. As for the experimental part:
(§1) Human lung cancer cells A549, NCl-H460 and 7 cancer cell lines were cultured in RPMI 1640 medium containing 10% FBS (Gibco, USA) and 1% penicillin-streptomycin. Human colon cancer cell HCT-116 cell line was cultured in McCoy's 5A medium containing 10% FBS (Gibco, USA) and 1% penicillin-streptomycin. Human leukemia cancer cell HL-60 cell line was cultured in IMDM medium containing 20% FBS (Gibco, USA) and 1% penicillin-streptomycin. Human normal cell line WI-38 was cultured in MEM containing 10% FBS (Gibco, USA), 1% penicillin-streptomycin, and 1% Non-Essential Amin Acids solution. Human normal cell line HUVEC cultured in Human Endothelial Growth Medium containing. All the cells were cultured in sterilized cell culture plastic dishes or 96-well plastic plates in a humidified incubator filled with 95% air and 5% CO2 gas and maintained at a temperature of 37° C.
(§2) First, the cells are seeded in a 96-well plate (Nunc, 165305) at a volume of 100 μl, and then cultured in an incubator overnight to confirm that they grow well on the plate. Depending on the concentration of the drugs, each well is treated with 100 μl of the compound and then incubated to allow cells and compounds to react for 48 hrs. PrestoBlue Cell Viability Reagent (Invitrogen, A13262) was added to the compound-treated well, and then the plates were incubated in a humidified incubator at 37° C. for 30 mins. Each well was measured at a fluorescence detected with the wavelength of an excitation of 560 nm and an emission of 590 nm using by microplate reader (BioTek, Synergy H1). The IC50 value is calculated by using the Gen5 software.

For a further assay, the system named is HL-60. Put plainly: PrestoBlue cell viability, HL-60. It counts as cell-based, Human. The following applies: leukemia, HL-60, 48 h. As to the method: as §1, §2
For a further assay, the system named is H1650. Put plainly: PrestoBlue cell viability, H1650. The format is cell-based. The following applies: Homo sapiens, NCI-H1650; lung, H1650, 48 h. As for the experimental part: as §1, §2
A further assay concerns MCF-7. Put plainly: PrestoBlue cell viability, MCF-7. It counts as cell-based. To be noted: Homo sapiens, MCF7; breast, MCF-7, 48 h. As to the method:
as §1, §2

Another assay has as its system HUVEC. Put plainly: PrestoBlue toxicity test, normal cells HUVEC. It counts as cell-based, Human. To be noted: 48 h. As to the method: as §1, §2
The test system of the next assay is CFPAC-1. Put plainly: PrestoBlue cell viability, CFPAC-1. The following applies: Homo sapiens; pancreas, CFPAC-1, 48 h. It counts as cell-based. As for the experimental part:
as §1, §2

The test system of another assay is A549. Put plainly: PrestoBlue cell viability, A549. The format is cell-based, Human. As for the experimental part:
as §1, §2

In another assay the test system is H1975. Put plainly: PrestoBlue cell viability, H1975. The format is cell-based. The following applies: Homo sapiens, NCI-H1975; lung, H1975, 48 h. As for the experimental part: as §1, §2
A further assay concerns K562. Put plainly: PrestoBlue cell viability, K562. The format is cell-based, Human. To be noted: Homo sapiens; leukemia, K562, 48 h. As to the method:
as §1, §2

A further assay relates to HCC827. Put plainly: PrestoBlue cell viability, HCC827. It counts as cell-based. The following applies: Homo sapiens; lung, HCC827, 48 h. As for the experimental part: as §1, §2
The next assay has as its system H460. Put plainly: PrestoBlue cell viability, H460. It counts as cell-based, Human. To be noted: Homo sapiens, lung. As to the method: as §1, §2
In another assay the test system is H1299. Put plainly: PrestoBlue cell viability, H1299. It counts as cell-based. To be noted: Homo sapiens, NCI-H1299; lung, H1299, 48 h. As for the experimental part:
as §1, §2

The next assay has as its system BxPC-3. Put plainly: PrestoBlue cell viability, BxPC-3. It counts as cell-based. The following applies: Homo sapiens; pancreas, BxPC-3, 48 h. As for the experimental part:
as §1, §2

A further assay concerns WI-26. Put plainly: PrestoBlue toxicity test, normal cells WI-26. The format is cell-based, Human. To be noted: WI-26, 48 h.
The test system of another assay is MDA-MB-231. Put plainly: PrestoBlue cell viability, MDA-MB-231. The format is cell-based. The following applies: Homo sapiens; breast, MDA-MB-231, 48 h. As to the method:
as §1, §2

In the next assay the test system is H146. Put plainly: PrestoBlue cell viability, H146. To be noted: Homo sapiens, NCI-H146; lung, H146, 48 h. It counts as cell-based. As to the method: as §1, §2
The next assay concerns WI-38. Put plainly: PrestoBlue toxicity test, normal cells WI-38. It counts as cell-based, Human. To be noted: WI-38, 48 h. As to the method:
as §1, §2

Each structure is given as a SMILES string.

For orientation: IC50 means the midpoint of a concentration-inhibition curve.

For the molecule `COc1cc([C@@H]2C3=C(COC3=O)Cc3cc4c(cc32)OCO4)cc(OC)c1OCc1ccccc1` [example 3, (5S)-5-(4-Benzyloxy-3,5-dimethoxy-phenyl)-5,9-dihydro-8H-furo[3′,4′:6,7]naphtho[2,3-d][1,3]dioxol-6-one], the IC50 with HCT-116 was 0.234 µM; with HL-60, 0.181 µM; in the assay on H1650, over 50 µM; in the assay with MCF-7, over 50 µM; in the assay on HUVEC, over 50 µM; in the assay with HUVEC (Homo sapiens), at least 50 µM. Besides, the IC50 with CFPAC-1 was over 50 µM; with A549 (Homo sapiens; lung, A549, 48 h) it was 0.127 µM; in the assay on H1975 it was over 50 µM; with K562 it was over 50 µM; in the assay on HCC827 it was over 50 µM; in the assay with H460 (NCI-H460, H460, 48 h), 0.174 µM. Further, the IC50 in the assay on H1299 was over 50 µM; in the assay with BxPC-3, over 50 µM; in the assay with WI-26 (Homo sapiens, 48 h), at least 50 µM; in the assay on WI-26, over 50 µM; in the assay on MDA-MB-231 it was over 50 µM; in the assay with H146, over 50 µM. The half-inhibitory concentration (IC50) with WI-38 (Homo sapiens) was at least 50 µM; with WI-38 it was over 50 µM.

For the molecule `COc1cc([C@@H]2C3=C(COC3=O)Cc3cc4c(cc32)OCO4)cc(OC)c1OC(=O)c1ccccc1` [example 2, Benzoic acid (5S)-2,6-dimethoxy-4-(6-oxo-5,6,8,9-tetrahydrofuro[3′,4′:6,7]naphtho[2,3-d][1,3]dioxol-5-yl)-phenyl ester], the concentration for half-maximal inhibition (IC50) in the assay on HCT-116 was 1.39 µM; in the assay on HL-60, 0.25 µM; in the assay with H1650 it was over 50 µM; in the assay on MCF-7, over 50 µM; in the assay with HUVEC, over 50 µM; with HUVEC (Homo sapiens), at least 50 µM. Further, the half-maximal inhibitory concentration (IC50) was over 50 µM in the assay on CFPAC-1; 0.202 µM in the assay on A549 (Homo sapiens, A549, 48 h, lung); over 50 µM in the assay on H1975; over 50 µM in the assay with K562; over 50 µM in the assay with HCC827; 0.134 µM in the assay with H460 (NCI-H460, 48 h). For the same molecule, the concentration for half-maximal inhibition (IC50) with H1299 was over 50 µM; in the assay with BxPC-3 it was over 50 µM; with WI-26 (Homo sapiens, 48 h) it was at least 50 µM; in the assay with WI-26 it was over 50 µM; in the assay with MDA-MB-231, over 50 µM; with H146, over 50 µM. For the same molecule, the IC50 in the assay on WI-38 (Homo sapiens) was at least 50 µM; in the assay with WI-38, over 50 µM.

With `COc1cc([C@@H]2c3cc4c(cc3[C@@H](O[C@@H]3O[C@@H]5CO[C@@H](C)O[C@H]5[C@H](O)[C@H]3O)[C@H]3COC(=O)[C@H]23)OCO4)cc(OC)c1O` [Etoposide, reference compound], the half-maximal inhibitory concentration (IC50) in the assay with HCT-116 is 7.29 µM; in the assay on HL-60 (Homo sapiens) it was 2.43 µM; in the assay with H1650 it was over 50 µM; in the assay on MCF-7, over 50 µM; in the assay on HUVEC (Homo sapiens), over 50 µM; with CFPAC-1 it was 42 µM. Further, the IC50 with A549 (Homo sapiens; lung, A549, 48 h) is 2.16 µM; with H1975 it was over 50 µM; in the assay with HCC827, over 50 µM; in the assay on H460 (NCI-H460, H460, 48 h), 0.971 µM; in the assay with H1299, 40.1 µM; with BxPC-3 it was over 50 µM. Moreover, the 50% inhibitory concentration (IC50) in the assay on MDA-MB-231, in the assay with H146 and in the assay with WI-38 (Homo sapiens) was over 50 µM throughout.

In the case of `COc1cc([C@@H]2C3=C(COC3=O)Cc3cc4c(cc32)OCO4)cc(OC)c1OC(C)=O` [example 1, Acetic acid (5S)-2,6-dimethoxy-4-(6-oxo-5,6,8,9-tetrahydrofuro[3′,4′:6,7]naphtho[2,3-d][1,3]dioxol-5-yl)-phenyl ester], the IC50 in the assay with HCT-116 is 0.129 µM; with HL-60, 0.03 µM; in the assay with H1650, over 50 µM; in the assay on MCF-7, over 50 µM; with HUVEC, over 50 µM; in the assay with HUVEC (Homo sapiens), at least 50 µM. Also, the half-inhibitory concentration (IC50) in the assay with CFPAC-1 was over 50 µM; with A549 (Homo sapiens, A549, 48 h, lung) it was 0.065 µM; with H1975 it was over 50 µM; in the assay on K562, over 50 µM; in the assay with HCC827, over 50 µM; in the assay on H460 (NCI-H460, 48 h) it was 0.06 µM. The concentration for half-maximal inhibition (IC50) in the assay on H1299 is over 50 µM; with BxPC-3, over 50 µM; in the assay with WI-26 (Homo sapiens, 48 h), at least 50 µM; in the assay with WI-26 it was over 50 µM; with MDA-MB-231, over 50 µM; in the assay on H146, over 50 µM. The IC50 in the assay on WI-38 (Homo sapiens) was at least 50 µM; with WI-38 it was over 50 µM.

Values taken from patent US11407761B2, “Derivative of β-apopicropodophyllin and method of preparing thereof” (J&C Sciences, priority 2020, dated 2022).
